Experiment [1] has as its system HSV-2 GFP+ (bHSV2-BAC38-S1). As to the kind of experiment: HSV-2 GFP+ infection of MRC5 cells, live-cell fluorescence imaging. Particulars: for inhibition of fluorescent HSV-2 GFP+ infected cells: 24 hours post infection, 125 μM (FIG. 5A). Format: cell-based. The procedure:
FIG. 5A. Fluorescent images of MRC5 cells infected with HSV-2 GFP+(bHSV2-BAC38-S1). Images taken at 0 and 24 hours post infection using an Incucyte S3 Live-Cell Analysis System. Acyclovir at a matched concentration (125 μM) was used as a positive control. FIG. 5B. Live cell imaging analysis of triplicate wells infected with HSV-2 GFP+. Wells were treated with either Vehicle (0.1% DMSO), Acyclovir 125 μM, or JR002 125 μM. Images were collected at 2 hour intervals for 48 hours post infection. Relative fluorescent intensity (RFI) calculated as the percent increase in fluorescence intensity relative to time 0 post infection. Bars represent the standard error of the mean.
JR002 is the selenoglycoside homolog of TE3048, the thioglycoside for which data for inhibition of HSV-1 was shown above. In FIG. 5A., the lower right quadrant represents high level cell damage, fluorescent HSV-2 GFP+ infected cells 24 hours post infection (24HPI), vehicle only.

Experiment [2] concerns SARS-CoV-2 (USA_WA1/2020). The following applies: highest non-toxic dose; Vero E6, 72 hr.
Excerpt: In this assay, viral infection and replication leads to a loss of host cell viability, which is indirectly measured by an endpoint assessment of host cell viability after 72 hr. The CPE reduction assay indirectly monitors the ability of compounds to inhibit viral replication and infection through various molecular mechanisms, including direct inhibition of viral entry or enzymatic processes as well as acting on host pathways that modulate viral replication. Compounds with antiviral activity protect the host cells from the CPE of the virus, increasing viability.
Protocol: Vero E6 cells were premixed with SARS-CoV-2 for 5-10 min, dispensed into assay ready plates (pre-dispensed with compounds and controls). Cells and virus were incubated with compounds for 72 hr, then viability was assayed by Vero E6 host cell ATP content. 60 nL/well of compounds in DMSO was spotted into 384-well assay plates (Greiner, black clear bottom, tissue culture treated plates, #781091) by acoustic dispensing. In addition, 60 nL of the positive control Calpain inhibitor IV (stock concentration 2 mg/mL). 5 μL/well of media was dispensed into assay plates (MEM, 1% Pen/Strep/GlutaMax, 1% HEPES, 2% HI FBS). […] Luminescence signal was read on Perkin Elmer Envision or BMG CLARIOstar plate reader.
Another experiment deals with HSV-1. Format: cell-based, Herpes simplex 1. The following applies: Vero cells, 4 hour treatment, low multiplicity HSV-1.
In a further experiment the test system is SARS-CoV-2 spike protein. Particulars: previously demonstrated; blocks N-glycan processing at the oligomannose stage; cited from earlier work.

“Also recorded” adds a separate entry of the source.

In the case of `Nc1nc2c(ncn2COCCO)c(=O)[nH]1` [Acyclovir, reference compound], the “inhibition of fluorescent HSV-2 GFP+ infected cells” value in experiment [1] is given as “almost complete inhibition”.
Consider `CC(=O)NC1C(OC(C)=O)[C@H](OC(C)=O)C(COC(C)=O)O[C@H]1[Se]C/C=C(\C)CCC=C(C)C` (stereo partly drawn) [JR002, Geranyl 2-acetamido-2-deoxy-3,4,6-tri-O-acetyl-1-seleno-3-D-glucopyranoside], for which, in experiment [1] (125 μM, imaging for 48 hours post infection), the “inhibition of HSV-2 replication / infectivity” value is given as “potent inhibition of infectivity; also recorded: significantly inhibits”. Also, the “inhibition of fluorescent HSV-2 GFP+ infected cells” value in experiment [1] was “almost complete inhibition”.
For the compound `CC(=O)N[C@@H]1[C@@H](OC(C)=O)[C@H](OC(C)=O)[C@@H](COC(C)=O)O[C@H]1SC/C=C(\C)CCC=C(C)C` [TE3048, N,O-tetra-acetyl-GlcNAc-ß-S-geranyl], in experiment [2], the “inhibition of SARS-CoV-2” value is reported as 60-70%.
Turning to `CC(=O)N[C@@H]1[C@@H](O)[C@H](O)[C@@H](CO)O[C@H]1SC/C=C(\C)CCC=C(C)C` [TE3054, GlcNAc-ß-S-geranyl], the “inhibition of HSV-1 infectivity / plaque formation” value with HSV-1 is given as “inhibitory”.
On to `O=C1N[C@@H]2[C@@H](O)[C@@H](O)[C@H](O)[C@@H](CO)N2C1=O` [kifunensine], for which, in the experiment on SARS-CoV-2 spike protein, the “inhibition of N-glycan maturation and infectivity” value is “Inhibition of N-glycan maturation and infectivity”.

The record behind these values is US20260272965A1, “SELEN[…] OF GLY[…] ANTI-INFLAMMATORY AND ANTIVIRAL PHARMACEUTICALS” (priority 2023, published 2026).
